Data published in patent US20240287614A1, “RECIPROCAL MICRORNA-MRNA PAIRINGS AS BIOMARKERS AND THERAPEUTIC TARGETS IN CANCER” (UNIVERSITY OF MARYLAND, EASTERN SHORE, priority 2023, published 2024).

Test system: MTOR
Assay: RT-qPCR of MTOR expression after miRNA mimic transfection
Assay type: cell-based, human
Conditions: African American and European American prostate cancer cells; vs nonsense/scrambled (NS) miRNA control
Procedure: […] RC77 T/E, a primary prostate cancer cell line derived from a patient, was kindly provided by Dr. Johng Rhim at Center for Prostate Disease Research (CPDR) in Rockville, MD. LNCaP and PC-3 were served as prostate cancer cell line models, and RC77 T/E and MDA PCa 2b were served as prostate cancer cell models in the study. The cells were cultured in specific cell culture media, LNCaP was cultured in RPMI with 10% fetal bovine serum (FBS), PC-3 was cultured in DMEM with 10% FBS, MDA PCa 2b were cultured in BRFF-HPC1 with 20% FBS and RC77 T/E was cultured in Keratinocyte SFM with Human Recombinant Epidermal Growth Factor (EGF 1-53) and Bovine Pituitary Extract (BPE). Cells were maintained at 37° C. in a 5% CO2 incubator. LNCaP, PC-3 and MDA PCa 2b cells were seeded at density 3×10^4 cells/well in 6-well plates. RC77 T/E cells were seeded at density 5×10^4 cells/well in 6-well plates. […]
For the measurement of gene expression level, total RNA was isolated using miRNeasy Mini Kit (50) (Qiagen) from the prostate cancer cells used in the study. Quantification of total RNA samples were done using NanoVue Plus spectrophotometer (GE Healthcare). […] Reverse transcription was performed using iScript Reverse Transcription Supermix kit (Bio-Rad) to generate cDNA then followed by performing quantitative PCR (qPCR) assays using SsoAdvanced Universal SYBR Green supermix kit (Bio-Rad). […]

## miR-99b-5p mimic: miRNA mimic of miR-99b-5p (SEQ ID NO: 2, CACCCGUAGAACCGACCUUGCG), purchased from Ambion (listed as RNA, chemistry not given here; listed as Homo sapiens)
  MTOR expression (RT-qPCR): decreased
